Measured values: patent US9765092B2, “Tricyclic piperidine compounds” (ACTELION PHARMACEUTICALS LTD, priority 2013, dated 2017)

target: human TPH1 (Homo sapiens (Human), UniProt P17752); test: Biochemical in vitro assay using fluorescence readout (TPH1 inhibition); conditions: full length human TPH1, 40 μM L-tryptophan, 15° C., 60 minutes, fluorescence at 540 nm; mean if determined several times
Sequence (P17752 whole entry): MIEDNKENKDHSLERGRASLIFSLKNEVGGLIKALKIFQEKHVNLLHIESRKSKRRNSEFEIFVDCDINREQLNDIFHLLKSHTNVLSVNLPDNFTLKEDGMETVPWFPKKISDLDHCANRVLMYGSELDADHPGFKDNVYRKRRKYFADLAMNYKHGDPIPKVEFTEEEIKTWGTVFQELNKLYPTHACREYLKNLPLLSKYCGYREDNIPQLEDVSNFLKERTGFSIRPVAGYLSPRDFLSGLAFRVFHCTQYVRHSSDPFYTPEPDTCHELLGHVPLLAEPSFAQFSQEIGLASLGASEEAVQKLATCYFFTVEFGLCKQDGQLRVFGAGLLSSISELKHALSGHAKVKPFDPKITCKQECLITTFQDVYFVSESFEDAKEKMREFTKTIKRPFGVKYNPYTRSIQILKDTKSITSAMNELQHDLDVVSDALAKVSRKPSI

| Structure (SMILES) | IC50 |
| --- | --- |
| Cc1nn2c3c(nc2s1)CCN(C(=O)COc1ccc(N2CCOCC2)nc1Cl)C3c1cc(C(=O)N(C)C)cs1 (stereo not shown) [Example 1.9.1, 5-(6-(2-((2-chloro-6-morpholinopyridin-3-yl)oxy)acetyl)-2-methyl-5,6,7,8-tetrahydro-[1,3,4]thiadiazolo[2′,3′:2,3]imidazo[4,5-c]pyridin-5-yl)-N,N-dimethyl-thiophene-3-carboxamide] | 0.005 µM |

same assay, conditions: human TPH1, fluorescence readout

| Structure (SMILES) | IC50 |
| --- | --- |
| Cn1nc(OCC(=O)N2CCc3nc4sccn4c3C2c2nc3ccccc3s2)c(Cl)c1C(F)(F)F (stereo not shown) [Example 6.12.7, 1-(5-(benzo[d]thiazol-2-yl)-7,8-dihydrothiazolo-[2′,3′:2,3]imidazo[4,5-c]pyridin-6(5H)-yl)-2-((4-chloro-1-methyl-5-(trifluoromethyl)-1H-pyrazol-3-yl)-oxy)ethanone] | 0.062 µM |
| O=C(COc1ccc(CN2CCOCC2)nc1Cl)N1CCc2nc3sccn3c2C1c1cc2cccnc2s1 (stereo not shown) [Example 6.14.4, 2-((2-chloro-6-(morpholinomethyl)pyridin-3-yl)oxy)-1-(5-(thieno[2,3-b]pyridin-2-yl)-7,8-dihydrothiazolo-[2′,3′:2,3]imidazo[4,5-c]pyridin-6(5H)-yl)ethanone] | 0.038 µM |
| Cc1cc(Cl)ccc1OCC(=O)N1CCc2nc3sccn3c2C1c1c(C)noc1C (stereo not shown) [Example 6.5.4, 2-(4-chloro-2-methylphenoxy)-1-(5-(3,5-dimethylisoxazol-4-yl)-7,8-dihydrothiazolo[2′,3′:2,3]imidazo[4,5-c]-pyridin-6(5H)-yl)ethanone] | 0.027 µM |
| CCc1ncccc1OCC(=O)N1CCc2nc3sc(C)nn3c2C1c1cc(CN(C)C)cs1 (stereo not shown) [Example 1.8.2, 1-(5-(4-((dimethylamino)methyl)thiophen-2-yl)-2-methyl-7,8-dihydro-[1,3,4]thiadiazolo[2′,3′:2,3]imidazo[4,5-c]pyridin-6(5H)-yl)-2-((2-ethylpyridin-3-yl)oxy)ethanone] | 0.14 µM |
| CCc1nc(NS(C)(=O)=O)ccc1OCC(=O)N1CCc2nc3sc(C)nn3c2[C@@H]1c1ncc(C)cc1F [Example 1.31.16, (R)-N-(6-ethyl-5-(2-(5-(3-fluoro-5-methylpyridin-2-yl)-2-methyl-7,8-dihydro-[1,3,4]thiadiazolo[2′,3′:2,3]imidazo[4,5-c]pyridin-6(5H)-yl)-2-oxoethoxy)pyridin-2-yl)methanesulfonamide] | 0.018 µM |
| Cc1nn2c3c(nc2s1)CCN(C(=O)COc1ccc(N2CCOCC2)nc1Cl)C3c1ncc(Cl)cc1F (stereo not shown) [Example 1.33.1, 1-(5-(5-chloro-3-fluoropyridin-2-yl)-2-methyl-7,8-dihydro[1,3,4]thiadiazolo[2′,3′:2,3]imidazo[4,5-c]pyridin-6(5H)-yl)-2-((2-chloro-6-morpholinopyridin-3-yl)oxy)ethanone] | 0.002 µM |
| CN(C)C(=O)c1cc(F)c(C2c3c(nc4sccn34)CCN2C(=O)COc2ccc(NS(C)(=O)=O)cc2Cl)s1 (stereo not shown) [Example 6.9.1, 5-(6-(2-(2-chloro-4-(methylsulfonamido)phenoxy)-acetyl)-5,6,7,8-tetrahydrothiazolo[2′,3′:2,3]imidazo[4,5-c]pyridin-5-yl)-4-fluoro-N,N-dimethylthiophene-2-carboxamide] | 0.002 µM |
| Cc1nn(C)c(C)c1C1c2c(nc3sccn23)CCN1C(=O)COc1ccc(C(F)(F)F)cc1Cl (stereo not shown) [Example 6.15.2, 2-(2-chloro-4-(trifluoromethyl)phenoxy)-1-(5-(1,3,5-trimethyl-1H-pyrazol-4-yl)-7,8-dihydrothiazolo-[2′,3′:2,3]imidazo[4,5-c]pyridin-6(5H)-yl)ethanone] | 0.048 µM |
| Cc1nc(C)c(C2c3c(nc4sc(C)nn34)CCN2C(=O)COc2ccc(N3CCOCC3)nc2Cl)o1 (stereo not shown) [Example 1.66.1, 2-((2-chloro-6-morpholinopyridin-3-yl)oxy)-1-(5-(2,4-dimethyloxazol-5-yl)-2-methyl-7,8-dihydro-[1,3,4]thiadiazolo [2′,3′:2,3]imidazo[4,5-c]pyridin-6(5H)-yl)ethanone] | 0.013 µM |
| Cc1nn2c3c(nc2s1)CCN(C(=O)COc1ccc(NS(C)(=O)=O)nc1Cl)C3c1ccc(C)c(F)c1F (stereo not shown) [Example 1.61.2, N-(6-chloro-5-(2-(5-(2,3-difluoro-4-methylphenyl)-2-methyl-7,8-dihydro-[1,3,4]thiadiazolo[2′,3′:2,3]imidazo-[4,5-c]pyridin-6(5H)-yl)-2-oxoethoxy)pyridin-2-yl)methanesulfonamide] | 0.034 µM |
| Cc1cnc(C2c3c(nc4sc(C)nn34)CCN2C(=O)COc2ccc(C(F)(F)F)nc2Cl)c(F)c1 (stereo not shown) [Example 1.31.5, 2-((2-chloro-6-(trifluoromethyl)pyridin-3-yl)oxy)-1-(5-(3-fluoro-5-methylpyridin-2-yl)-2-methyl-7,8-dihydro-[1,3,4]thiadiazolo[2′,3′:2,3]imidazo[4,5-c]pyridin-6(5H)-yl)ethanone] | 0.021 µM |
| Cc1nn2c3c(nc2s1)CCN(C(=O)COc1ccc(N2CCOCC2)nc1Cl)C3c1scnc1C (stereo not shown) [Example 1.32.1, 2-((2-chloro-6-morpholinopyridin-3-yl)oxy)-1-(2-methyl-5-(4-methylthiazol-5-yl)-7,8-dihydro-[1,3,4]thiadiazolo [2′,3′:2,3]imidazo[4,5-c]pyridin-6(5H)-yl)ethanone] | 0.002 µM |
| CN1CCN(c2ccc(OCC(=O)N3CCc4nc5sc(C6CC6)nn5c4C3c3ccc(Cl)cc3F)c(Cl)n2)CC1 (stereo not shown) [Example 4.1.4, 1-(5-(4-chloro-2-fluorophenyl)-2-cyclopropyl-7,8-dihydro-[1,3,4]thiadiazolo[2′,3′:2,3]imidazo[4,5-c]pyridin-6(5H)-yl)-2-((2-chloro-6-(4-methylpiperazin-1-yl)pyridin-3-yl)oxy)ethanone] | 0.012 µM |
| CNC(=O)c1ccc(C2c3c(nc4sc(C)nn34)CCN2C(=O)COc2ccc(C(=O)N(C)C)nc2Cl)o1 (stereo not shown) [Example 1.42.1, 6-chloro-N,N-dimethyl-5-(2-(2-methyl-5-(5-(methylcarbamoyl)furan-2-yl)-7,8-dihydro-[1,3,4]thiadiazolo[2′,3′:2,3]imidazo[4,5-c]pyridin-6(5H)-yl)-2-oxoethoxy)picolinamide] | 0.049 µM |
| COCc1ccc(C2c3c(nc4sc(C)nn34)CCN2C(=O)COc2ccc(NS(C)(=O)=O)nc2Cl)c(F)c1 (stereo not shown) [Example 1.82.1, N-(6-chloro-5-(2-(5-(2-fluoro-4-(methoxymethyl)phenyl)-2-methyl-7,8-dihydro-[1,3,4]thiadiazolo[2′,3′:2,3]imidazo[4,5-c]pyridin-6(5H)-yl)-2-oxoethoxy)pyridin-2-yl)methanesulfonamide] | 0.017 µM |
| Cc1nn2c3c(nc2s1)CCN(C(=O)COc1ccc(C(=O)N(C)C)nc1Cl)C3c1cc(F)ccc1F (stereo not shown) [Example 1.57.1, 6-chloro-5-(2-(5-(2,5-difluorophenyl)-2-methyl-7,8-dihydro-[1,3,4]thiadiazolo[2′,3′:2,3]imidazo[4,5-c]pyridine-6(5H)-yl)-2-oxoethoxy)-N,N-dimethylpicolinamide] | 0.03 µM |
| Cc1nn2c3c(nc2s1)CCN(C(=O)COc1ccc(NS(C)(=O)=O)nc1Cl)C3c1ccc(OC(F)(F)F)cc1F (stereo not shown) [Example 1.77.1, N-(6-chloro-5-(2-(5-(2-fluoro-4-(trifluoromethoxy)phenyl)-2-methyl-7,8-dihydro-[1,3,4]thiadiazolo[2′,3′:2,3]imidazo[4,5-c]pyridin-6(5H)-yl)-2-oxoethoxy)pyridin-2-yl)methanesulfonamide] | 0.013 µM |
| CCc1nc(N2CCCS2(=O)=O)ccc1OCC(=O)N1CCc2nc3sc(CF)nn3c2C1c1ncc(C)cc1F (stereo not shown) [Example 7.2.1, 2-((6-(1,1-dioxidoisothiazolidin-2-yl)-2-ethylpyridin-3-yl)oxy)-1-(5-(3-fluoro-5-methylpyridin-2-yl)-2-(fluoromethyl)-7,8-dihydro-[1,3,4]thiadiazolo[2′,3′:2,3]imidazo[4,5-c]pyridin-6(5H)-yl)ethanone] | 0.009 µM |
| CNC(=O)c1ccc(OCC(=O)N2CCc3nc4sccn4c3C2c2sccc2F)c(Cl)n1 (stereo not shown) [Example 6.8.3, 6-chloro-5-(2-(5-(3-fluorothiophen-2-yl)-7,8-dihydro-thiazolo[2′,3′:2,3]imidazo[4,5-c]pyridin-6(5H)-yl)-2-oxoethoxy)-N-methylpicolinamide] | 0.009 µM |
| CCc1nc(NS(C)(=O)=O)ccc1OCC(=O)N1CCc2nc3sc(C(F)(F)F)nn3c2C1c1ccc(C)cc1F (stereo not shown) [Example 5.3.1, N-(6-ethyl-5-(2-(5-(2-fluoro-4-methylphenyl)-2-(trifluoromethyl)-7,8-dihydro-[1,3,4]thiadiazolo[2′,3′:2,3]imidazo[4,5-c]pyridin-6(5H)-yl)-2-oxoethoxy)pyridin-2-yl)methanesulfonamide] | 0.028 µM |
| O=C(COc1ccc(Cl)cc1Cl)N1CCc2nc3sccn3c2C1c1cc2cccnc2s1 (stereo not shown) [Example 6.14.1, 2-(2,4-dichlorophenoxy)-1-(5-(thieno[2,3-b]pyridin-2-yl)-7,8-dihydrothiazolo[2′,3′:2,3]imidazo[4,5-c]pyridin-6(5H)-yl)ethanone] | 0.025 µM |
| Cc1nn2c3c(nc2s1)CCN(C(=O)COc1ccc(N2CCOCC2)nc1Cl)C3c1cnc(C(=O)N(C)C)s1 (stereo not shown) [Example 1.34.1, 5-(6-(2-((2-chloro-6-morpholinopyridin-3-yl)oxy)acetyl)-2-methyl-5,6,7,8-tetrahydro-[1,3,4]thiadiazolo[2′,3′:2,3]imidazo[4,5-c]pyridin-5-yl)-N,N-dimethylthiazole-2-carboxamide] | 0.006 µM |
| Cc1nn2c3c(nc2s1)CCN(C(=O)COc1ccc(C(=O)N(C)C2CC2)nc1Cl)C3c1ccc(C2CC2)cc1F (stereo not shown) [Example 1.6.28, 6-chloro-N-cyclopropyl-5-(2-(5-(4-cyclopropyl-2-fluoro-phenyl)-2-methyl-7,8-dihydro-[1,3,4]thiadiazolo-[2′,3′:2,3]imidazo[4,5-c]pyridin-6(5H)-yl)-2-oxoethoxy)-N-methylpicolinamide] | 0.018 µM |
| Cc1nc(C)c(C2c3c(nc4sc(C)nn34)CCN2C(=O)COc2ccc(NS(C)(=O)=O)nc2Cl)s1 (stereo not shown) [Example 1.68.2, N-(6-chloro-5-(2-(5-(2,4-dimethylthiazol-5-yl)-2-methyl-7,8-dihydro-[1,3,4]thiadiazolo[2′,3′:2,3]imidazo[4,5-c]pyridin-6(5H)-yl)-2-oxoethoxy)pyridin-2-yl)methanesulfonamide] | 0.009 µM |
